According to patent US20230183310A1, “Polypeptide Compounds and Use Thereof in the Prevention or Treatment of Diabetes or Diabetic Complications” (Shenzhen Turier Biotech Co., Ltd., priority 2020, published 2023):
*1 amine or outer side, *2 acyl side, *3 side chain or, on linkers, in order; H or OH if unused. Primed or numbered codes have the meaning given here. Where no end group is shown, it is not given here. Side-chain parts run from the residue outwards. [ ]: non-standard residue; d: D form. The star is where a group is joined. C20 diacid = O=C(O)CCCCCCCCCCCCCCCCCCC(=O)*; γGlu = O=C(O)[C@H](CCC(=O)[*:2])N[*:1]; Iva = CC[C@](C)(N)C(=O)O; PEG2′ = not defined here; Aib = CC(C)(N)C(=O)O

Experiments:
[1] = system: C57BL/6J mice; assay: Oral glucose tolerance (OGTT), repeated glucose loads followed to 24 h after one s.c. dose; format: in vivo; settings: four OGTT curves (0-22 h); 100 μg/kg subcutaneously
Procedure: Eight-week-old male C57BL/6J mice (Model Animal Research Center, Nanjing University) were randomly grouped according to similar blood glucose (assessed by blood samples obtained from the tail tip), with six mice in each group. […] The initial blood samples (fasted blood glucose levels) were obtained after about 4 h. Subsequently, an oral dose of glucose (2 g/kg) was administered and the animals were placed back in their holding cages (t=0). […] The oral dose of glucose was then repeated at 8 h of administration, 12 h of administration and […], and blood glucose changes were detected and followed until 24 hours. The data were processed using the software GraphPadPrism to make a line graph of blood glucose changes, and the area under the curve was calculated to obtain an AUC graph, and the results are shown in FIG. 1.

[2] = system: db/db diabetic mice; assay: Treatment of 12-week-old db/db diabetic mice: blood glucose, OGTT, ITT, ALT/AST, diabetic nephropathy indices; format: in vivo; settings: for weekly blood glucose (hypoglycemic effect): FIG. 4A, blood glucose at normal levels at week 1; for weekly blood glucose (hypoglycemic effect) / improving oral glucose tolerance (OGTT) / improving insulin resistance (ITT) / ALT and AST in serum (hepatoprotective function): 120 μg/kg s.c. daily; for improving oral glucose tolerance (OGTT): FIG. 4B, week 4; for improving insulin resistance (ITT): FIG. 4C, week 5; for ALT and AST in serum (hepatoprotective function): FIG. 4D; for H&E staining of kidneys: glomerular adhesion, ameliorative and therapeutic effects: FIG. 5B; for H&E staining of kidneys: glomerular adhesion, ameliorative and therapeutic effects / PAS staining of kidneys: ameliorative effects on glomerular mesangial region / collagen content (Sirius red, FN and α-SMA staining of kidneys): after 8 weeks; for H&E staining of kidneys: glomerular adhesion, ameliorative and therapeutic effects / collagen content (Sirius red, FN and α-SMA staining of kidneys): compared to semaglutide, SAR425899 and MED C18-acid groups; for PAS staining of kidneys: ameliorative effects on glomerular mesangial region: FIG. 5C; for collagen content (Sirius red, FN and α-SMA staining of kidneys): FIGS. 5D to 5F
Procedure: Normal mice born in the same litter; DC group: db/db mice control group). Blood glucose and body weight were measured on alternate days after daily administration of the medicament, and water intake and food intake were measured once a week. OGTT was measured at week 4, insulin tolerance (ITT) was measured at week 5, metabolism of mice was examined using mouse metabolic cages at weeks 6-7, and various serological and pathological indices were taken at week 8.
Type 2-diabetes mice were characterized by obesity, insulin resistance, hyperglycemia, dyslipidemia and hepatic fat vacuole-like degeneration.
After 6 weeks of medical treatment, the mice was collected for urine using metabolic cages, and the protein content in the urine was detected using relevant kits. After 7 weeks of medical treatment, the material was taken and blood was used to detect serological indicators such as blood creatinine and urea nitrogen.

[3] = system: FN protein (fibronectin); assay: Western blot of FN protein in high glucose-induced in vitro renal fibrosis cell model; format: cell-based, rat; settings: 10 μM; 30 mmol/L glucose; 48 h; mesangial and renal epithelial cells
From the text: Hyperglycemia and increased production of glycosylation end products will cause morphological changes such as proliferation and hypertrophy of glomerular mesangial cells, increase in extracellular matrix (ECM) and mesangial expansion, which will eventually lead to the loss of its physiological function. […] Therefore, this example used high glucose to induce MCS mesangial cells and NRK renal epithelial cells to construct an in vitro renal fibrosis cell model for screening medicaments useful for the treatment of diabetic nephropathy. The renal mesangial cell strain GMC and glomerular epithelial cells mTEC used in this example were both cells kept in the applicant's laboratory (both were extracted from rat renal primary cells) and cultured in low sugar medium containing 10% fetal bovine serum. The cells were starved with serum-free culture medium for 24 h when grew to 70% confluence. The cells were divided into the following 9 groups by adjusting the glucose concentration as follows: […]

[4] = system: db/db diabetic mice; assay: Dose determination in 8-week-old db/db diabetic mice: blood glucose and body weight; format: in vivo; settings: for body weight (weight-lowering effect) / weight-lowering effect relative to compounds 3 and 8 / blood glucose (glucose-lowering effect): FIG. 3A, daily s.c.; for effect relative to polypeptide compounds 3 and 8 / overall hypoglycemic effect / blood glucose (hypoglycemic effect) / subsequent blood glucose course (long-lasting effect): FIG. 3B, every other day s.c.; for subsequent blood glucose course (long-lasting effect): from day 3 / after days 3-5
Procedure: The db/db mice diabetic model (purchased from Nanjing University-Nanjing Institute of Biomedical Research, about 8 weeks, and blood glucose and body weight were measured to ensure the smooth subsequent experiments) was obtained, and the model mice were randomly divided into 12 groups (including polypeptide compounds 3, 8, 13, 15, semaglutide and physiological saline groups), with 6 mice in each group and no difference in basal body weight and blood glucose. Each group was injected subcutaneously with compound 3 (80 and 120 μg/kg, 2 groups), compound 8 (80 and 120 μg/kg, 2 groups), compound 13 (80 and 120 μg/kg, 2 groups), compound 15 (80 and 120 μg/kg, 2 groups), semaglutide (80 and 120 μg/kg, 2 groups) and physiological saline (DN group: normal mice born in the same litter; DC group: db/db mice control group) every day or every other day.
Blood glucose and body weight of mice were measured after daily administration and 6 h fasting on alternate days.

His-(D-Ser)-Gln-Gly-Thr-Phe-Thr-Ser-Asp-Lys(Gly-Gly-Ser-Gly-Ser-Gly-γGlu-CO(CH2)18-COOH)-Ser-Lys-Tyr-Leu-Glu-Aib-Lys-Ala-Ala-Gln-Asp-Phe-Val-Glu-Trp-Leu-Lys-Ala-Gly-Gly-Pro-Ser-Ser-Gly-Ala-Pro-Pro-Pro-Ser (H[dS]QGTFTSDKSKYLE[Aib]KAAQDFVEWLKAGGPSSGAPPPS; not fully specified (residue 10, C-terminus)) [Compound 13]
long-acting hypoglycemic effects compared to semaglutide [1]: superior and significant long-acting hypoglycemic effects | weekly blood glucose (hypoglycemic effect) [2]: significant hypoglycemic effects | improving oral glucose tolerance (OGTT) [2]: performed more excellent | improving insulin resistance (ITT) [2]: performed more excellent | ALT and AST in serum (hepatoprotective function) [2]: more excellent hepatoprotective functions | H&E staining of kidneys: glomerular adhesion, ameliorative and therapeutic effects [2]: more significant | PAS staining of kidneys: ameliorative effects on glomerular mesangial region [2]: more significant | collagen content (Sirius red, FN and α-SMA staining of kidneys) [2]: improved more significantly | FN protein expression (Western blot) [3]: inhibited FN expression more significantly | body weight (weight-lowering effect) [4]: better weight-lowering effect | weight-lowering effect relative to compounds 3 and 8 [4]: superior to that of compounds 3 and 8 | blood glucose (glucose-lowering effect) ([4]; 80 μg/kg): significant glucose-lowering effect with long-lasting effect | blood glucose (glucose-lowering effect) ([4]; 120 μg/kg, vs saline DC group): good glucose-lowering effect in 3-5 days | effect relative to polypeptide compounds 3 and 8 [4]: better than that of polypeptide compounds 3 and 8 | overall hypoglycemic effect [4]: more excellent hypoglycemic effect | blood glucose (hypoglycemic effect) ([4]; 80 μg/kg): significant hypoglycemic effect on day 3, but the subsequent blood glucose level did not change much and tended to be stable | blood glucose (hypoglycemic effect) ([4]; 120 μg/kg): good hypoglycemic effect on days 3-5 | subsequent blood glucose course (long-lasting effect) ([4]; 120 μg/kg): kept good hypoglycemic effect

His-(D-Ser)-Gln-Gly-Thr-Phe-Thr-Ser-Asp-Lys(PEG2-PEG2-γGlu-CO(CH2)18CO2H)-Ser-Lys-Tyr-Leu-Glu-Aib-Lys-Ala-Ala-Gln-Asp-Phe-Val-Glu-Trp-Leu-Lys-Ala-Gly-Gly-Pro-Ser-Ser-Gly-Ala-Pro-Pro-Pro-Ser-NH2 (H[dS]QGTFTSDK([PEG2′-PEG2′-γGlu-C20 diacid])SKYLE[Aib]KAAQDFVEWLKAGGPSSGAPPPS-NH2) [Compound 3]
long-acting hypoglycemic effects compared to semaglutide [1]: superior and significant long-acting hypoglycemic effects | weekly blood glucose (hypoglycemic effect) [2]: significant hypoglycemic effects | improving oral glucose tolerance (OGTT) [2]: performed more excellent | improving insulin resistance (ITT) [2]: performed more excellent | ALT and AST in serum (hepatoprotective function) [2]: more excellent hepatoprotective functions | H&E staining of kidneys: glomerular adhesion, ameliorative and therapeutic effects [2]: more significant | PAS staining of kidneys: ameliorative effects on glomerular mesangial region [2]: more significant | collagen content (Sirius red, FN and α-SMA staining of kidneys) [2]: improved more significantly | FN protein expression (Western blot) [3]: inhibited FN expression more significantly | body weight (weight-lowering effect) [4]: better weight-lowering effect | blood glucose (glucose-lowering effect) ([4]; 80 μg/kg): significant glucose-lowering effect | blood glucose (glucose-lowering effect) ([4]; 120 μg/kg, vs saline DC group): good glucose-lowering effect in 3-5 days | overall hypoglycemic effect [4]: more excellent hypoglycemic effect | blood glucose (hypoglycemic effect) ([4]; 80 μg/kg): first decrease and then increase, and the overall hypoglycemic effect was significant | blood glucose (hypoglycemic effect) ([4]; 120 μg/kg): good hypoglycemic effect on days 3-5 | subsequent blood glucose course (long-lasting effect) ([4]; 120 μg/kg): the blood glucose did not change much

His-Aib-Gln-Gly-Thr-Phe-Thr-Ser-Asp-Lys(PEG2-PEG2-γGlu-CO(CH2)18CO2H)-Ser-Lys-Tyr-Leu-Asp-Glu-Arg-Ala-Ala-Gln-Asp-Phe-Iva-Gln-Trp-Leu-Leu-Asp-Gly-Gly-Pro-Ser-Ser-Gly-Aib-Pro-Pro-Pro-Ser-NH2 (H[Aib]QGTFTSDK([PEG2′-PEG2′-γGlu-C20 diacid])SKYLDERAAQDF[Iva]QWLLDGGPSSG[Aib]PPPS-NH2) [Compound 8]
long-acting hypoglycemic effects compared to semaglutide [1]: superior and significant long-acting hypoglycemic effects | weekly blood glucose (hypoglycemic effect) [2]: significant hypoglycemic effects | improving oral glucose tolerance (OGTT) [2]: performed more excellent | improving insulin resistance (ITT) [2]: performed more excellent | ALT and AST in serum (hepatoprotective function) [2]: more excellent hepatoprotective functions | H&E staining of kidneys: glomerular adhesion, ameliorative and therapeutic effects [2]: more significant | PAS staining of kidneys: ameliorative effects on glomerular mesangial region [2]: more significant | collagen content (Sirius red, FN and α-SMA staining of kidneys) [2]: improved more significantly | FN protein expression (Western blot) [3]: inhibited FN expression more significantly | body weight (weight-lowering effect) [4]: better weight-lowering effect | blood glucose (glucose-lowering effect) ([4]; 80 μg/kg): significant glucose-lowering effect | blood glucose (glucose-lowering effect) ([4]; 120 μg/kg, vs saline DC group): good glucose-lowering effect in 3-5 days | overall hypoglycemic effect [4]: more excellent hypoglycemic effect | blood glucose (hypoglycemic effect) ([4]; 80 μg/kg): first decrease and then increase, and the overall hypoglycemic effect was significant | blood glucose (hypoglycemic effect) ([4]; 120 μg/kg): good hypoglycemic effect on days 3-5 | subsequent blood glucose course (long-lasting effect) ([4]; 120 μg/kg): the blood glucose did not change much

His-Aib-Gln-Gly-Thr-Phe-Thr-Ser-Asp-Lys(Gly-Gly-Ser-Gly-Ser-Gly-γGlu-CO(CH2)18-COOH)-Ser-Lys-Tyr-Leu-Asp-Glu-Arg-Ala-Ala-Gln-Asp-Phe-Iva-Gln-Trp-Leu-Leu-Asp-Gly-Gly-Pro-Ser-Ser-Gly-Aib-Pro-Pro-Pro-Ser (H[Aib]QGTFTSDKSKYLDERAAQDF[Iva]QWLLDGGPSSG[Aib]PPPS; not fully specified (residue 10, C-terminus)) [Compound 15]
long-acting hypoglycemic effects compared to semaglutide [1]: superior and significant long-acting hypoglycemic effects | weekly blood glucose (hypoglycemic effect) [2]: significant hypoglycemic effects | improving oral glucose tolerance (OGTT) [2]: performed more excellent | improving insulin resistance (ITT) [2]: performed more excellent | ALT and AST in serum (hepatoprotective function) [2]: more excellent hepatoprotective functions | H&E staining of kidneys: glomerular adhesion, ameliorative and therapeutic effects [2]: more significant | PAS staining of kidneys: ameliorative effects on glomerular mesangial region [2]: more significant | collagen content (Sirius red, FN and α-SMA staining of kidneys) [2]: improved more significantly | FN protein expression (Western blot) [3]: inhibited FN expression more significantly | body weight (weight-lowering effect) [4]: better weight-lowering effect | weight-lowering effect relative to compounds 3 and 8 [4]: superior to that of compounds 3 and 8 | blood glucose (glucose-lowering effect) ([4]; 80 μg/kg): significant glucose-lowering effect with long-lasting effect | blood glucose (glucose-lowering effect) ([4]; 120 μg/kg, vs saline DC group): good glucose-lowering effect in 3-5 days | effect relative to polypeptide compounds 3 and 8 [4]: better than that of polypeptide compounds 3 and 8 | overall hypoglycemic effect [4]: more excellent hypoglycemic effect | blood glucose (hypoglycemic effect) ([4]; 80 μg/kg): significant hypoglycemic effect on day 3, but the subsequent blood glucose level did not change much and tended to be stable | blood glucose (hypoglycemic effect) ([4]; 120 μg/kg): good hypoglycemic effect on days 3-5 | subsequent blood glucose course (long-lasting effect) ([4]; 120 μg/kg): kept good hypoglycemic effect
